For one data set, the system named is Leishmania donovani. The data set can be described thus: Antileishmanial activity against Leishmania donovani MHOM/SD/62/1S-CL2D axenic amastigote after 48 hrs by CellTiter-Glo luminescent cell viability assay. It counts as functional, organism-based.
The test system of the next data set is Trypanosoma brucei. As to the kind of experiment: Antitrypanosomal activity against Trypanosoma brucei Lister 427 bloodstream form after 48 hrs by CellTiter-Glo luminescent cell viability assay. It counts as functional, organism-based. Particulars: Lister 427, 48 h.
Another data set concerns Trypanosoma cruzi. The data set can be described thus: Antitrypanosomal activity against Trypanosoma cruzi Tulahuen amastigotes expressing beta-galactosidase infected in mouse NIH3T3 cells after 6 days. It counts as functional, organism-based. To be noted: NIH3T3, 144 h.
Data set [1] can be described thus: Cytotoxicity against mouse primary peritoneal macrophages. The data set is classed as cell-based, Peritoneal macrophage.
Data set [2] deals with Dihydroorotate dehydrogenase (quinone), mitochondrial (Homo sapiens, UniProt Q02127). The data set can be described thus: Inhibition of human DHODH expressed in Escherichia coli by DCIP staining-based spectrophotometric analysis.
A short description of data set [3]: Aqueous solubility of compound. The data set is classed as physicochemical. Particulars: buffer.
Data set [4] addresses Fatty acid-binding protein, adipocyte (Homo sapiens, UniProt P15090). The data set can be described thus: Binding affinity to recombinant FABP4 (unknown origin) expressed in Escherichia coli by sypro orange dye-based TdF assay.
Data set [5] can be described thus: Inhibition of Plasmodium falciparum DHODH expressed in Escherichia coli by DCIP staining-based spectrophotometric analysis.
Data set [6] is described as follows: Protein binding in human plasma by ultracentrifugation method. The data set is classed as ADME, cell-free.
Data set [7] is described as follows: Intrinsic clearance in human liver microsomes assessed per mg protein by LC-MS analysis. The data set is classed as ADME, Microsome. To be noted: read-out: CLH.
Data set [8] in a line: Intrinsic clearance in mouse liver microsomes assessed per mg protein by LC-MS analysis. The data set is classed as ADME, Microsome. To be noted: read-out: CLH.
The nature of data set [9]: Cytotoxicity against mouse NIH/3T3 cells after 5 days by CellTiter-Glo luminescent cell viability assay. The data set is classed as cell-based, NIH3T3.
Data set [10] is described as follows: Oral bioavailability in mouse at 20 mg/kg administered as single dose. It counts as ADME, organism-based. Particulars: in vivo.
The nature of data set [11]: Dissociation constant, pKa of compound. It counts as physicochemical.
Data set [12] in a line: Lipophilicity, log D of the compound at pH 7.4 by shake flask method. The data set is classed as physicochemical. Particulars: buffer.

Converted amounts (≈) assume the structure as drawn.

Fatty acid-binding protein, adipocyte, sequence (P15090 whole entry): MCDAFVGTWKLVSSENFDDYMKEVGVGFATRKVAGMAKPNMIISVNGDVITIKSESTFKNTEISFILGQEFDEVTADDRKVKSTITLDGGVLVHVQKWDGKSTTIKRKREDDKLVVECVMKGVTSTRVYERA
Dihydroorotate dehydrogenase (quinone), mitochondrial, sequence (Q02127 whole entry): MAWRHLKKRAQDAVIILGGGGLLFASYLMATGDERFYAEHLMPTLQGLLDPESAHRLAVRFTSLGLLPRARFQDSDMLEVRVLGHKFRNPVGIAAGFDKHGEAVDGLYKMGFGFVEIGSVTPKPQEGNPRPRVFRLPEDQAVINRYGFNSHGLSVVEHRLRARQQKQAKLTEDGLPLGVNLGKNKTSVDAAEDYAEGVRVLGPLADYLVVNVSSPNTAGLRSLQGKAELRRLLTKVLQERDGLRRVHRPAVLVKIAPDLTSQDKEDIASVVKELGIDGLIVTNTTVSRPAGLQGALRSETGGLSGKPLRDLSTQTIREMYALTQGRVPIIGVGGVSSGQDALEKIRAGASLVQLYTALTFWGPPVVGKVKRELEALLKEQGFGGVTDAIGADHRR

Regarding `O=C(Nc1ccc(Cl)c(-c2nc3ncccc3o2)c1)c1ccco1`, the half-maximal effective concentration (EC50) in the data set with Leishmania donovani was found to be 7.3 µM; with Trypanosoma brucei, 150 µM; in the data set on Trypanosoma cruzi, 0.075 µM. Also, in [1], the CC50 was over 50 µM.
In turn, `Cc1cc(Nc2ccc3ccccc3c2)n2ncnc2n1` returned an IC50 in [2] of over 200 µM. Also, the solubility in data set [3] fell in the range of 45 to 90 µM (≈ 12.4 to 24.8 µg/mL).
On to `COc1ccc(Cl)cc1NCc1cc(=O)n2nc(-c3ccccc3)nc2[nH]1`, for which the dissociation constant (Kd) in data set [4] amounted to 0.86 µM.
`Cc1cc(Nc2ccc(S(F)(F)(F)(F)F)cc2)n2nc(C(C)(F)F)nc2n1` [DSM-265] showed a half-inhibitory concentration (IC50) in [5] of 0.033 µM. Moreover, the solubility in data set [3] fell in the range of 70 to 140 µM (≈ 29.1 to 58.1 µg/mL). In data set [6], the PPB was determined as 90.4%. In addition, the microsomal CLint in data set [7] is under 5 µL/min/mg; in data set [8], 10.1 µL/min/mg.
On to `CC(C)OC(=O)Nc1cnc2nc(-c3cc(NC(=O)c4ccco4)ccc3Cl)nn2c1`, for which the EC50 in the data set with Leishmania donovani was 0.35 µM; in the data set on Trypanosoma brucei, 0.079 µM; in the data set on Trypanosoma cruzi it was 0.055 µM. The molecule further yielded a CC50 at 120 h in data set [9] of 9 µM. Besides, half-maximal cytotoxicity in data set [1] (CC50) was put at 14 µM.
For `Cc1cc(Nc2cc(F)c(C(F)(F)F)c(F)c2)n2ncnc2n1`, the 50% inhibitory concentration (IC50) was 0.19 µM in [5] and over 30 µM in data set [2]. Also, the solubility in data set [3] lay in the range of 9 to 18 µM (≈ 2.96 to 5.93 µg/mL). For the same molecule, the values for the microsomal CLint in [7] and in [8] were under 5 µL/min/mg and under 6 µL/min/mg, respectively.
In the data set with Trypanosoma brucei, `Cc1nc(C)c(C(=O)Nc2ccc(F)c(-c3nc4ncc(-c5ccccn5)cn4n3)c2)o1` gave an EC50 of 0.07 µM. In data set [10], this molecule yielded a bioavailability of under 34%.
As to `Cc1c(Cl)cccc1NCc1cc(=O)n2nc(-c3ccccc3)nc2[nH]1`, the Kd in data set [4] was determined as 0.01 µM. This molecule also registered a pKa in [11] of 4.6.
On to `Cc1nc(C)c(C(=O)Nc2ccc(F)c(-c3nc4ncc(-c5ccccc5)cn4n3)c2)o1`, for which the concentration giving a half-maximal response (EC50) in the data set on Leishmania donovani was 0.071 µM; in the data set with Trypanosoma brucei, 0.022 µM; in the data set with Trypanosoma cruzi, 0.016 µM. The same molecule had a bioavailability in [10] of under 34%.
Turning to `Cc1cc(Nc2ccc(C(F)(F)F)nc2)n2nc(C(C)(F)F)nc2n1`, the 50% inhibitory concentration (IC50) in [5] was 0.014 µM; in [2] it was over 100 µM. Further, in [12], the logD is listed as 2.5. In data set [3], this molecule had a solubility of over 100 µM. The fraction unbound in data set [6] (read-out: PPB) is 0.5. Besides, the microsomal CLint in data set [8] is 5.1 µL/min/mg.
As for `O=c1cc(CNc2cccc(Cl)c2C2CC2)[nH]c2nc(-c3ccccc3)nn12`, the Kd in data set [4] is 0.02 µM.

The values are drawn from ChEMBL document CHEMBL4480398, “1,2,4-Triazolo[1,5-a]pyrimidines in drug design” (Eur J Med Chem, 2019).
